The record followed here is patent EP0211183A2, “Use of ubidecarenone(ubiquinone-10) as an antichromatotic agent” (Eisai Co., Ltd., priority 1985, dated 1987).

The subject of one series is guinea pigs. Description: Sensitization, maximization test by Magnusson and Kligman. The note with it: challenge on day 21, sealed 24 hours. The class given is in vivo. As to the method: This was tested in accordance with a maximization test by Magnusson B. and Kligman, A.M. The test is as follows:
Twenty guinea pigs were prepared for the test, ten being for the induction and the other ten being for the control in the challenge. The suprascapular part of the guinea pig was clipped and shaved in the area of 4cm x 6cm, and the following three pairs of hypodermic injections (a), (b) and (c) were imparted simultaneously to both the right and left parts as being symmetrical about the median line. • (a) Each 0.05ml of FCA to two points in both the right and left parts, totalling O.lml in all. • (b) Each 0.05ml of the test substance to two points in both the right and left parts, in the form of an aqueous solution (content of test substance: 10X). • (c) Each 0.05ml of FCA as containing the test substance emulsion to two points in both the right and left parts.
After one week from the hypodermic injection, the suprascapular part was again clipped and vaseline containing 10X of sodium laurylsulfate was applied thereover thereby to cause a slight inflammation on the applied part. By this treatment, the sensitization was intensified. Next, the test substance was applied to this part, which was thereafter airtightly sealed. […]

A short description of series [1]: Acute toxicity, various dosage pathways, 7-day lethality, LD50 by Litchfield-Wilcoxon. The class given is in vivo, ICR-JCL mice. The settings on record: in vivo, read-out: LD50 value (95% confidence limit). The method, then: (§1) The acute toxicity of the present substance was investigated in various dosage pathways by the use of Wister rats and ICR-JCL mice. For the peroral or endermic dosage, the present substance was dissolved in a distilled water and the resulting solution was used. For the other dosages, the present substance was dissolved in a physiological salt solution and the resulting solution was dosed with a stomach conductor or an injector. In each dosage, a determined amount of the substance was regulated and properly dosed.
(§2) After the dosage, the expression of toxicopathy was continuously observed, and the lethality with the lapse of time for 7 days was measured and the value of LDSO was obtained therefrom. Both the tested animals as living and the tested animals as died were dissected for observation. LD50 was calculated on the basis of Litchfield-Wilcoxon figure-calculation method.

Another series concerns ICR-JCL mice. The description is as above. It is filed as in vivo. The settings on record: mice. The method, then:
as §1, §2

The subject of the next series is Wister rats. The description is as above. The settings on record: rats. The class given is in vivo. As to the method:
as §1, §2

[2] abbreviates: at the dosages of Table-1, 7 days.

Like-named read-outs stand apart in the source and are kept apart here.

Regarding `COC1=C(OC)C(=O)C(CC=C(C)CCC=C(C)CCC=C(C)CCC=C(C)CCC=C(C)CCC=C(C)CCC=C(C)CCC=C(C)CCC=C(C)CCC=C(C)C)=C(C)C1=O` [ubiquinone-10], the sensitization reaction result in the series with guinea pigs is on record as “No sensitization reaction”. The LD50 – broadly, the dose expected to kill half of the subjects tested – at 168 h in series [1] (mouse, im, mice (male, female), Intramuscular) worked out at 500 mg/kg; in series [1] (mouse, ip, mice (male, female), Intra-abdominal), 1500 mg/kg; in series [1] (mouse, po, mice (male, female), Peroral) it was 4000 mg/kg; in series [1] (mouse, sc, mice (male, female), Hypodermic), 500 mg/kg; in series [1] (mouse, mice (male, female), Endermic), 4000 mg/kg; in series [1] (mouse, mice (male, female), Intravenous), 250 mg/kg. The LD50 at 168 h in series [1] (rat, im, rats (male, female), Intramuscular) turned out to be 500 mg/kg; in series [1] (rat, ip, rats (male, female), Intra-abdominal), 1500 mg/kg; in series [1] (rat, po, rats (male, female), Peroral), 4000 mg/kg; in series [1] (rat, sc, rats (male, female), Hypodermic), 500 mg/kg; in series [1] (rat, rats (male, female), Endermic), 4000 mg/kg; in series [1] (rat, rats (male, female), Intravenous), 250 mg/kg. Further, the “general condition, weight, amount of feed intake, observation in dissection” value with ICR-JCL mice (at the dosages of Table-1) and in the series on Wister rats (at the dosages of Table-1) was “no abnormal change was found” in each case. The lethality entry in the series with ICR-JCL mice (setting [2]) and with Wister rats (setting [2]) was “no animals as tested died” each time.
